Test [1] in a line: Increase in contractions of electrically stimulated guinea pig longitudinal muscle/myenteric plexus at 0.1 mM. It counts as functional, Cavia porcellus, Muscle tissue.
Another test is filed under the species Cavia porcellus. The test can be described thus: Increase in contractions of electrically stimulated guinea pig longitudinal muscle/myenteric plexus. Particulars: Muscle tissue. It counts as functional, tissue-based.
Test [2] is described as follows: Increase in contractions of electrically stimulated guinea pig longitudinal muscle/myenteric plexus at 2 mM. Format: functional, Cavia porcellus, Muscle tissue.

For `C/N=c1\ncn(C)c2c1[nH]c(=O)n2C` [CAISSARONE], the Activity in test [1] is 80%; in the test listed under Cavia porcellus, “Dose-dependent effect”.

As for `Cn1c(=N)c2nc[nH]c2n(C)c1=O`, the Activity in test [2] came out at 34%.

Source of the values: ChEMBL document CHEMBL1146421, “1,3-Dimethylisoguanine, a new purine from the marine sponge Amphimedon viridis” (1997).
